In brackets after ≈: the same amount, converted by molar mass. Read-outs that look alike come from different tables or passages of the source.
Experiments:
mouse spleen cell = assay: cells; format: cell-based
IL-5 production = assay: Inhibitory activity against Th2 cytokine produced from sensitized spleen cells: IL-5; format: cell-based, mouse; conditions: OVA-sensitized BALB/c spleen cells, 3 days
Protocol: (§1) A 7-week-old BALB/c mouse was immunized intraperitoneally with aluminum hydroxide gel (4 mg, 100 μl) having 10 μg of ovalbumin adsorbed thereon, and it was subjected to additional immunization with the same agent 14 days later. Seven days thereafter, spleen was taken out, and suspended in RPMI-1640 comprising inactivated fetal bovine serum (10%), 2-mercaptoethanol ([…]), penicillin G (100 U/ml), and streptomycin (100 μg/ml). Thus, a splenic cell suspension was prepared. Ovalbumin (0.5 mg/ml) and a test compound were added to a splenic cell suspension (5×10^6 cell/200 μl/well), and the resultant was cultured at 37° C. in the presence of 5% CO2 for 3 days. The cytokine level in the culture supernatant was quantified by ELISA. IFN-γ and IL-4 were assayed using a kit available from Amersham, and IL-5 was assayed using a kit available from Endogen.

Balb/c male mouse = assay: Interferon-inducing activity in mouse (in vivo), serum interferon titer after oral dosing
IL-4 production = assay: Inhibitory activity against Th2 cytokine produced from sensitized spleen cells: IL-4; format: cell-based, mouse; conditions: OVA-sensitized BALB/c spleen cells, 3 days
Protocol: as §1

[1] = Gastrointestinal absorption in rat (drug level in blood by HPLC); format: in vivo; conditions: SD male rat
Protocol: A test compound was suspended in an aqueous solution of 0.5% carboxymethylcellulose, and the resulting suspension was orally administered to an SD male rat. Blood was sampled with the elapse of time, and the level of the drug in blood was assayed by HPLC.

[2] = tested on: human peripheral blood mononuclear cells (PBMC); assay: Interferon-inducing activity in human peripheral blood mononuclear cells (PBMC), IFN-α ELISA; format: cell-based; conditions: 24 h;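 note: IFN-α in pg/ml with a 1.25 pg/ml detection limit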
Protocol: Peripheral bloods were sampled from 5 healthy volunteers using a syringe containing heparin, and peripheral blood mononuclear cells (PBMC) were prepared by density gradient centrifugation utilizing the Lymphoprep™ (NYCOMED PHARMA AS). PBMCs were washed twice in serum-free RPMI 1640 medium and adjusted at 1×10^6 cells/ml in RPMI 1640 medium comprising 10% fetal bovine serum. The product was cultured in the presence of a test compound dissolved in dimethyl sulfoxide (final concentration: 0.1%) in an incubator in the presence of 5% CO^2 at 37° C. for 24 hours. As a control, 0.1% dimethyl sulfoxide containing no test compound was used. The culture supernatant was aseptically collected by filtration. Thereafter, the supernatant was cryopreserved at −20° C. or lower until it was subjected to the assay for IFN-inducing activity. Human IFN-α in the culture supernatant was quantified using a highly sensitive ELISA system (Amersham).

[3] = Solubility in citric acid/disodium phosphate buffers; conditions: citric acid/disodium phosphate buffer, thermodynamic from solid
Protocol: 5.53% citric acid (monohydrate) and 1.75% disodium phosphate (anhydrous) were mixed together to prepare buffers (pH 2.5, 5.5, 7.4). A compound was added thereto, the mixture was stirred in a vortex mixer and subjected to ultrasonication for 30 minutes. Thereafter, the resultant was stirred in a vortex mixer again and then centrifuged at 15,000 rpm for 20 minutes. The levels of the compounds in the supernatants were then quantified by HPLC.

male cynomolgus monkeys [4] = conditions: po, 10 mg/kg, 4 h
[5] = tested on: rat model of eosinophil leukocytic infiltration; assay: Rat model of eosinophil leukocytic infiltration (OVA, bronchoalveolar lavage); format: in vivo; conditions: 0.01 mg/kg intratracheal, 2.5 hours before induction, lavage 24 hours after
Protocol: A rat was immunized intraperitoneally with 1 ml of a solution containing 1 mg of ovalbumin (OVA) and 100 mg of Al(OH)3 on day 0 and day 7. On day 14, a 1% OVA solution was sprayed for 15 minutes using a ultrasonic nebulizer to induce reactions. A test compound was administered intratracheally 2.5 hours before the induction. Bronchoalveolar lavage was performed 24 hours after the induction, and eosinocytes in the wash was stained with Hinkelman to count the number of stained cells. Sensi.−/Challe.+, CMC-Na, and Fluticasone were used as controls. FIG. 1 and the following table show the results.

male cynomolgus monkeys [6] = assay: Interferon-inducing activity in cynomolgus monkey (in vivo), serum interferon titer and vomition; conditions: 10 mg/kg oral

What does the source list for “1-(2-hydroxy-2-methylpropyl)-2-methoxyethyl-1H-imidazo[4,5-c]quinoline-4-amine [Comparative Example 2, reference compound]”?
Interferon-inducing activity: Minimum effective concentration (mouse spleen cell): 3 nM; Inhibitory activity against IL-5 production (IL-5 production; concentration 0.1 nM): 106 % of control; Inhibitory activity against IL-5 production (IL-5 production; concentration 1 nM): 73 % of control; Inhibitory activity against IL-5 production (IL-5 production; concentration 10 nM): 18 % of control; Inhibitory activity against IL-5 production (IL-5 production; concentration 100 nM): 10 % of control; Interferon-inducing activity (Balb/c male mouse; dosage 0.1 mg/kg oral, serum 2 h after dosing, Balb/c mouse): 1638 ± 246 U/ml; Interferon-inducing activity (Balb/c male mouse; dosage 0.3 mg/kg oral, serum 2 h after dosing, Balb/c mouse): 1961 ± 950 U/ml; Inhibitory activity against IL-4 production (IL-4 production; concentration 0.1 nM): 90 % of control; Inhibitory activity against IL-4 production (IL-4 production; concentration 1 nM): 24 % of control; Inhibitory activity against IL-4 production (IL-4 production; concentration 10 nM): 1 % of control; Inhibitory activity against IL-4 production (IL-4 production; concentration 100 nM): <1 % of control; Cmax ([1]; dose 3 mg/kg oral): 19 ng/mL; Tmax ([1]; dose 3 mg/kg oral): 1 h; Cmax ([1]; dose 10 mg/kg oral): 15 ng/mL; Tmax ([1]; dose 10 mg/kg oral): 0.5 h; Interferon-inducing activity (human IFN-α in culture supernatant) ([2]; concentration 0.3 nM): — ((−) indicates a detection limit (1.25 pg/ml) or lower); Interferon-inducing activity (human IFN-α in culture supernatant) ([2]; concentration 1 nM): — ((−) indicates a detection limit (1.25 pg/ml) or lower); Interferon-inducing activity (human IFN-α in culture supernatant) ([2]; concentration 3 nM): 6 ± 5 pg/mL

For CCCCNc1nc(N)c2nc(O)n(Cc3ccc(OC)nc3)c2n1 [Example 19, 2-Butylamino-8-hydroxy-9-(6-methoxy-3-pyridylmethyl)adenine], which minimal effective concentration (mouse spleen cell; Mus musculus, 24 h, read-out: Interferon-inducing activity: Minimum effective concentration) is on record?
Its minimal effective concentration is 0.003 µM.

And the activity at 0.001 µM (IL-5 production; Mus musculus, 72 h, concentration 1 nM, read-out: Inhibitory activity against IL-5 production)?
Its activity at 0.001 µM is 83%.

And the activity at 0.01 µM (IL-5 production; Mus musculus, 72 h, concentration 10 nM, read-out: Inhibitory activity against IL-5 production)?
Its activity at 0.01 µM is 16%.

And the activity at 0.1 µM (IL-5 production; Mus musculus, 72 h, concentration 100 nM, read-out: Inhibitory activity against IL-5 production)?
The activity at 0.1 µM was 13%.

And the Interferon-inducing activity (Balb/c male mouse; po, 0.01 mg/kg, 2 h)?
The Interferon-inducing activity was 14 ± 5 U/ml.

And the Interferon-inducing activity (Balb/c male mouse; po, 0.03 mg/kg, 2 h)?
The Interferon-inducing activity was 199 ± 84 U/ml.

And the Interferon-inducing activity (Balb/c male mouse; po, 0.1 mg/kg, 2 h)?
Its Interferon-inducing activity is 383 ± 122 U/ml.

And the Interferon-inducing activity (Balb/c male mouse; po, 0.3 mg/kg, 2 h)?
The Interferon-inducing activity was 601 ± 187 U/ml.

And the activity at 0.001 µM (IL-4 production; Mus musculus, 72 h, concentration 1 nM, read-out: Inhibitory activity against IL-4 production)?
The activity at 0.001 µM was 32%.

What about the activity at 0.01 µM (IL-4 production; Mus musculus, 72 h, concentration 10 nM, read-out: Inhibitory activity against IL-4 production) of the same compound?
The activity at 0.01 µM was under 1%.

And the activity at 0.1 µM (IL-4 production; Mus musculus, 72 h, concentration 100 nM, read-out: Inhibitory activity against IL-4 production)?
The activity at 0.1 µM was under 1%.

And the solubility at 30 min ([3]; pH 2.5, aqueous buffer)?
Its solubility at 30 min is 130 µg/mL (≈ 379 µM).

What about the solubility at 30 min ([3]; pH 5.5, aqueous buffer) of the same compound?
Its solubility at 30 min is 2 µg/mL (≈ 5.82 µM).

And the solubility at 30 min ([3]; pH 7.4, aqueous buffer)?
Its solubility at 30 min is 2 µg/mL (≈ 5.82 µM).

What about the Cmax ([1]; blood, dose 3 mg/kg oral, read-out: Cmax) of the same compound?
The Cmax was 188 ng/mL.

What about the Tmax ([1]; blood, dose 3 mg/kg oral, read-out: Tmax) of the same compound?
Its Tmax is 4 h.

What about the “Interferon-inducing activity (human IFN-α in culture supernatant)” value ([2]; concentration 1 nM) of the same compound?
The value was 5 ± 1 pg/mL.

What about the “Interferon-inducing activity (human IFN-α in culture supernatant)” value ([2]; concentration 3 nM) of the same compound?
Its value is 12 ± 11 pg/mL.

What about the “Interferon-inducing activity (human IFN-α in culture supernatant)” value ([2]; concentration 10 nM) of the same compound?
Its value is 48 ± 34 pg/mL.

What about the “Interferon-inducing activity (human IFN-α in culture supernatant)” value ([2]; concentration 30 nM) of the same compound?
The value was 60 ± 33 pg/mL.

What about the “interferon titer in blood serum (average±SE)” value (male cynomolgus monkeys [4]) of the same compound?
The value was 12,173±6619 U/ml.

With C[C@@H]1C[C@H]2[C@@H]3C[C@H](F)C4=CC(=O)C=C[C@]4(C)[C@@]3(F)[C@@H](O)C[C@]2(C)[C@@]1(O)C(=O)SCF [Fluticasone, reference compound] as the compound, how does the “eosinocytes in bronchoalveolar lavage, Average” value [5] read?
The value was 300.07 ×10^4 cells.

What does the source list for CCCCOc1nc(N)c2nc(Br)n(Cc3ccc(Cl)nc3)c2n1 [Reference Example 2, 8-Bromo-2-butoxy-9-(6-chloro-3-pyridylmethyl)adenine]?
vomition observed (male cynomolgus monkeys [6]; cynomolgus monkeys): 4 out of 5 samples; interferon titer in blood serum (average±SE) (male cynomolgus monkeys [6]; four hours after the administration, five male cynomolgus monkeys): 18,305±5578 U/ml

— patent publication US7521454B2 (Dainippon Sumitomo Pharma Co., Ltd., priority 2001, dated 2009)
